Source: patent EP0293130A2, “Dimers of parathyroid hormone antagonists” (Merck & Co., Inc., priority 1987, dated 1988)
pIC50: −log10 of the molar value.

Tested on: adenylate cyclase
Details: adenylate cyclase assay
Source text: In the adenylate cyclase assay of Caporale, L. et al, Peptides: Structure and Function, Proc. 9th Am. Pept. Symp. p.

([Tyr³⁴,Cys³⁹]PTH(21-39)NH₂)₂
increase in antagonist potency over its monomeric derivative (dimer versus its monomeric derivative): 25 fold | pIC50 (read-out: IC₅₀ (antagonist potency), antagonism of PTH): 4.70
